How the values were obtained:
Cytochrome P450 2D6 = Cytochrome P450 2D6 (Homo sapiens, UniProt P10635); details: bti-tn-5b1-4; further: in other assays of this panel Not Active means under 50% inhibition at 10 µM
[1] = target: cGMP-specific 3',5'-cyclic phosphodiesterase (Homo sapiens, UniProt O76074); experiment: DRUGMATRIX: Phosphodiesterase PDE5 enzyme inhibition (substrate: [3H]cGMP + cGMP); type: tissue-based; details: platelet; Not Active = under 50% inhibition at 10 µM
[2] = target: Sigma non-opioid intracellular receptor 1 (Homo sapiens, UniProt Q99720); experiment: DRUGMATRIX: Sigma1 radioligand binding (ligand: [3H] Haloperidol); type: cell membranes, Jurkat, Membrane; details: Not Active = under 50% inhibition at 10 µM
[3] = target: T1, Muscarinic acetylcholine receptor M2 (Homo sapiens, UniProt P08172); type: cell membranes, CHO-K1, Membrane; further: in other assays of this panel Not Active means under 50% inhibition at 10 µM
T1 sequence (P08172 whole entry): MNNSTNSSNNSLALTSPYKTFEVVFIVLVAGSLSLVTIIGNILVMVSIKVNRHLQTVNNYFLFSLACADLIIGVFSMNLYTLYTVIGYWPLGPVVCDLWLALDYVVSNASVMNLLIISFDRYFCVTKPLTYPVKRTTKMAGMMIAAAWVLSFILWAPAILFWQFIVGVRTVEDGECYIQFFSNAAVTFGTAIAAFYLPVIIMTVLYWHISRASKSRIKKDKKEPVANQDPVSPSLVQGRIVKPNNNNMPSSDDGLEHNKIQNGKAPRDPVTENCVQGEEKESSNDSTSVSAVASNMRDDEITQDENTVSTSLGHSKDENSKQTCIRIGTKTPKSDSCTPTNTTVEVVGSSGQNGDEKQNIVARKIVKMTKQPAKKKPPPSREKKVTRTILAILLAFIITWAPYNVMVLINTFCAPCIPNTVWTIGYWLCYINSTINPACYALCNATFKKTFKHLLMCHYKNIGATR

[4] = target: T2, C-X-C chemokine receptor type 1 (Homo sapiens, UniProt P25024); further: in other assays of this panel Not Active means under 50% inhibition at 10 µM
T2 sequence (P25024 whole entry): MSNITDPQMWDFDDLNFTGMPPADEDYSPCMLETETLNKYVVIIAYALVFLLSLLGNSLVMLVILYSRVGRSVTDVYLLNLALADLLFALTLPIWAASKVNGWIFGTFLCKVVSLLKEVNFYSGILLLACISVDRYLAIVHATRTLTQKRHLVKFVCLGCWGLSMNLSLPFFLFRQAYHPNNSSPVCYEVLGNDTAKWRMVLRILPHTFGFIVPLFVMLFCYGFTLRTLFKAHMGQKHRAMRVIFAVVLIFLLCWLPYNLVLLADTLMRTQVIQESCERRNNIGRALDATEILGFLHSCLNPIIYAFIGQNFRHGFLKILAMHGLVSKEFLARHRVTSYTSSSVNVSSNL

Adenosine receptor A2a = Adenosine receptor A2a (Homo sapiens, UniProt P29274); experiment: DRUGMATRIX: Adenosine A2A radioligand binding (ligand: […]); type: cell membranes, Membrane; details: hek293; Not Active = under 50% inhibition at 10 µM
[5] = target: Epidermal growth factor receptor (Homo sapiens, UniProt P00533); experiment: DRUGMATRIX: Protein Tyrosine Kinase, EGF Receptor enzyme inhibition (substrate: Poly(Glu:Tyr)); type: cell-based, Insect cells; details: Not Active = under 50% inhibition at 10 µM
Epidermal growth factor receptor, sequence (P00533 whole entry): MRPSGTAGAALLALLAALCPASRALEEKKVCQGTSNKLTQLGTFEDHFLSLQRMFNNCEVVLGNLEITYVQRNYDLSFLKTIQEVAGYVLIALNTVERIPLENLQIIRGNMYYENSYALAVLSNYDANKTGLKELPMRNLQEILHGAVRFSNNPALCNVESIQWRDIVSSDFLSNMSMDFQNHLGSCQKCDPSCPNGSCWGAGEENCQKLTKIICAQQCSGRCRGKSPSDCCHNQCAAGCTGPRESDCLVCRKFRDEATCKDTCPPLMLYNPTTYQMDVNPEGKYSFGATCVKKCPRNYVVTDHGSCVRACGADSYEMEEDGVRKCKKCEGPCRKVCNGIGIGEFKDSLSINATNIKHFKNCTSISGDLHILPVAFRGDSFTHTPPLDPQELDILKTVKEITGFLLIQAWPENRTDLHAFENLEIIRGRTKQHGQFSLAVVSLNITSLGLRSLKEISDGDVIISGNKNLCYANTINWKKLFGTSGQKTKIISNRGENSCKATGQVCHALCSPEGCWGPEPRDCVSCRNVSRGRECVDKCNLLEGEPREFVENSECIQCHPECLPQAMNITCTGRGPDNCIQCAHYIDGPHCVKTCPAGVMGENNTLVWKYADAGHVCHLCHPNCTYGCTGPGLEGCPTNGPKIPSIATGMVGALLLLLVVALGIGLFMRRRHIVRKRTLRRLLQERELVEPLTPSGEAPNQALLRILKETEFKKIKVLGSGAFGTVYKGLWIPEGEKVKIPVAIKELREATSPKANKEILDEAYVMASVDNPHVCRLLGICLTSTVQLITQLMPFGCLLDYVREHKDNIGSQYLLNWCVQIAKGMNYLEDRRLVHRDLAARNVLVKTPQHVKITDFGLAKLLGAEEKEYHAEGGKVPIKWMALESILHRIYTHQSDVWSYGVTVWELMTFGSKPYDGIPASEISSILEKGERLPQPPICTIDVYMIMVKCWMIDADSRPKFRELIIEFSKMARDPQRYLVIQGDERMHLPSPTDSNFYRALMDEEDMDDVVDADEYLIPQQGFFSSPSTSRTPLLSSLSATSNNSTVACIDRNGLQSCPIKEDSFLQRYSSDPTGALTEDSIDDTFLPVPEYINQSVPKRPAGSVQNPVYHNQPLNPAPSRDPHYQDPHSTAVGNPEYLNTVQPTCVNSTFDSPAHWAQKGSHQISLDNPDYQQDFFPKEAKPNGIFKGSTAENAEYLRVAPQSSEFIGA

Adenosine receptor A2a, sequence (P29274 whole entry): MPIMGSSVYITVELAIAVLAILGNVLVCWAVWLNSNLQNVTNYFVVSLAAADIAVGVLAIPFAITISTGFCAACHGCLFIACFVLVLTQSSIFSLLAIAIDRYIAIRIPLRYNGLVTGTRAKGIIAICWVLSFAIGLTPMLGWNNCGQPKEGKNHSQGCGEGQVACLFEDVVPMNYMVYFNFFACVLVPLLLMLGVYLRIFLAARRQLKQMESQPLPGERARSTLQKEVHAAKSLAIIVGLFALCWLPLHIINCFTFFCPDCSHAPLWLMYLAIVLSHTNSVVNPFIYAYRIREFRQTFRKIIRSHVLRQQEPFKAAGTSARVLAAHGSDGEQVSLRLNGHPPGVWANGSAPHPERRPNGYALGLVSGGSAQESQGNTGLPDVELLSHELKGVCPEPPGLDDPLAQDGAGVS
Cytochrome P450 2D6, sequence (P10635 whole entry): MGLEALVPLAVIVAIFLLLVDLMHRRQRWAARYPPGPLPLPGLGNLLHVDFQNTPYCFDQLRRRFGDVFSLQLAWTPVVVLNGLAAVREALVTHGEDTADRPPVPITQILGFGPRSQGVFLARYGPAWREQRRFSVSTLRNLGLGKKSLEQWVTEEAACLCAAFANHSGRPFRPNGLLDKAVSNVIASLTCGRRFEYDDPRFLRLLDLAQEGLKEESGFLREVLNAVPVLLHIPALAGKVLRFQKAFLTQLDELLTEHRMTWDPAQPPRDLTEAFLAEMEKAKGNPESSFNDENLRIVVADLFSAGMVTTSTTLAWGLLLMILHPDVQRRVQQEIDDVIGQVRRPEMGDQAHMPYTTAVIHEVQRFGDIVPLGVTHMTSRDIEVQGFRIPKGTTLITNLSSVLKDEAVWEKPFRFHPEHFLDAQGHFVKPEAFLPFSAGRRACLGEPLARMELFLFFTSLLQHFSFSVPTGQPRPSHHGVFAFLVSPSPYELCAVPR
Sigma non-opioid intracellular receptor 1, sequence (Q99720 whole entry): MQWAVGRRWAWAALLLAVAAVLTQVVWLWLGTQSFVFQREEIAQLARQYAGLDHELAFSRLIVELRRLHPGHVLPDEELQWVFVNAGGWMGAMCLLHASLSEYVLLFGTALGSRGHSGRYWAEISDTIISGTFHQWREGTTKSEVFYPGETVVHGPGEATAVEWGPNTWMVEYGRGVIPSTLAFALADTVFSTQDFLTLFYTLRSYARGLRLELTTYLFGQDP

**Q.** `CCOC(=O)C1=C(COCCN)NC(C)=C(C(=O)OC)C1c1ccccc1Cl` (centres undefined) [AMLODIPINE] was tested. Which IC50 (Cytochrome P450 2D6) did it give?
**A.** Not Active

**Q.** What about the Ki (Cytochrome P450 2D6) of the same compound?
**A.** Not Active

**Q.** And the IC50 [1]?
**A.** Not Active

**Q.** What about the IC50 ([2]; jurkat) of the same compound?
**A.** Not Active

**Q.** What about the IC50 ([3]; cho-k1) of the same compound?
**A.** Not Active

**Q.** What about the IC50 [4] of the same compound?
**A.** Not Active

**Q.** And the IC50 (Adenosine receptor A2a)?
**A.** Not Active

**Q.** What about the IC50 ([5]; insect cells) of the same compound?
**A.** Not Active

**Q.** With `COc1ccc(C[C@H]2NC[C@H](O)[C@H]2OC(C)=O)cc1` [ANISOMYCIN] as the compound, how does the IC50 (Cytochrome P450 2D6) read?
**A.** Not Active

**Q.** What about the Ki (Cytochrome P450 2D6) of the same compound?
**A.** Not Active

**Q.** And the IC50 [1]?
**A.** Not Active

**Q.** What about the Ki [1] of the same compound?
**A.** Not Active

**Q.** And the IC50 ([2]; jurkat)?
**A.** Not Active

**Q.** What about the Ki ([2]; jurkat) of the same compound?
**A.** Not Active

**Q.** What about the IC50 ([3]; cho-k1) of the same compound?
**A.** Not Active

**Q.** And the Ki ([3]; cho-k1)?
**A.** Not Active

**Q.** What about the IC50 [4] of the same compound?
**A.** Not Active

**Q.** And the Ki [4]?
**A.** Not Active

**Q.** And the IC50 (Adenosine receptor A2a)?
**A.** Not Active

**Q.** And the Ki (Adenosine receptor A2a)?
**A.** Not Active

**Q.** And the IC50 ([5]; insect cells)?
**A.** Not Active

**Q.** What about the Ki ([5]; insect cells) of the same compound?
**A.** Not Active

**Q.** With `CN(C)C(=O)Oc1cc(OC(=O)N(C)C)cc(C(O)CNC(C)(C)C)c1` (centres undefined) [BAMBUTEROL] as the compound, how does the IC50 [1] read?
**A.** Not Active

**Q.** What about the IC50 ([2]; jurkat) of the same compound?
**A.** Not Active

**Q.** And the IC50 ([3]; cho-k1)?
**A.** Not Active

**Q.** And the IC50 [4]?
**A.** Not Active

**Q.** And the IC50 (Adenosine receptor A2a)?
**A.** Not Active

**Q.** And the IC50 ([5]; insect cells)?
**A.** Not Active

**Q.** `CN(Cc1ccc(C(C)(C)C)cc1)Cc1cccc2ccccc12` [BUTENAFINE] was tested. Which IC50 [1] did it give?
**A.** Not Active

**Q.** And the IC50 ([2]; read-out: IC50)?
**A.** 3950 nM

**Q.** And the Ki ([2]; read-out: Ki)?
**A.** 1660 nM

**Q.** And the IC50 ([3]; cho-k1)?
**A.** Not Active

**Q.** And the IC50 [4]?
**A.** Not Active

**Q.** And the IC50 (Adenosine receptor A2a)?
**A.** Not Active

**Q.** What about the IC50 ([5]; insect cells) of the same compound?
**A.** Not Active

**Q.** How did the IC50 [1] turn out when `Cc1ccc(-c2cc(C(F)(F)F)nn2-c2ccc(S(N)(=O)=O)cc2)cc1` [CELECOXIB] was run?
**A.** Not Active

**Q.** What about the IC50 ([2]; jurkat) of the same compound?
**A.** Not Active

**Q.** What about the IC50 ([3]; cho-k1) of the same compound?
**A.** Not Active

**Q.** What about the IC50 [4] of the same compound?
**A.** Not Active

**Q.** What about the IC50 (Adenosine receptor A2a) of the same compound?
**A.** Not Active

**Q.** What about the IC50 ([5]; insect cells) of the same compound?
**A.** Not Active

**Q.** What does the source list for `CN(C)CCCN1c2ccccc2Sc2ccc(Cl)cc21` [CHLORPROMAZINE]?
**A.** IC50 [1]: Not Active; IC50 [4]: Not Active; IC50 (Adenosine receptor A2a): Not Active; IC50 ([5]; read-out: IC50): 28900 nM

**Q.** `CC(C)(Oc1ccc(Cl)cc1)C(=O)O` [CLOFIBRIC ACID] was tested. Which IC50 [1] did it give?
**A.** Not Active

**Q.** And the IC50 ([2]; jurkat)?
**A.** Not Active

**Q.** And the IC50 ([3]; cho-k1)?
**A.** Not Active

**Q.** What about the IC50 [4] of the same compound?
**A.** Not Active

**Q.** And the IC50 (Adenosine receptor A2a)?
**A.** Not Active

**Q.** And the IC50 ([5]; insect cells)?
**A.** Not Active

**Q.** What does the source list for `O=C(CCCN1CC=C(n2c(=O)[nH]c3ccccc32)CC1)c1ccc(F)cc1` [DROPERIDOL]?
**A.** IC50 (Cytochrome P450 2D6): Not Active; Ki (Cytochrome P450 2D6): Not Active; IC50 [1]: Not Active; IC50 ([3]; cho-k1): Not Active; IC50 [4]: Not Active; IC50 (Adenosine receptor A2a): Not Active; IC50 ([5]; insect cells): Not Active

**Q.** What does the source list for `C[C@]12CC[C@@H]3c4ccc(O)cc4CC[C@H]3[C@@H]1CCC2=O` [ESTRONE]?
**A.** IC50 [1]: Not Active; IC50 ([2]; jurkat): Not Active; IC50 ([3]; cho-k1): Not Active; IC50 [4]: Not Active; IC50 (Adenosine receptor A2a): Not Active; IC50 ([5]; insect cells): Not Active

**Q.** Which IC50 [1] does the source give for `N=C(N)NCCN1CCCCCCC1` [GUANETHIDINE] here?
**A.** Not Active

**Q.** What about the IC50 ([2]; jurkat) of the same compound?
**A.** Not Active

**Q.** What about the IC50 ([3]; cho-k1) of the same compound?
**A.** Not Active

**Q.** What about the IC50 [4] of the same compound?
**A.** Not Active

**Q.** What about the IC50 (Adenosine receptor A2a) of the same compound?
**A.** Not Active

**Q.** And the IC50 ([5]; insect cells)?
**A.** Not Active

**Q.** What does the source list for `CCCCN1CCCC[C@H]1C(=O)Nc1c(C)cccc1C` [LEVOBUPIVACAINE]?
**A.** IC50 [1]: Not Active; IC50 ([2]; jurkat): Not Active; IC50 ([3]; cho-k1): Not Active; IC50 [4]: Not Active; IC50 (Adenosine receptor A2a): Not Active; IC50 ([5]; insect cells): Not Active

**Q.** Which results are given for `CC1(C)S[C@@H]2[C@H](NC(=O)Cc3ccccc3)C(=O)N2[C@H]1C(=O)O` [PENICILLIN G]?
**A.** IC50 [1]: Not Active; IC50 ([2]; jurkat): Not Active; IC50 ([3]; cho-k1): Not Active; IC50 [4]: Not Active; IC50 (Adenosine receptor A2a): Not Active; IC50 ([5]; insect cells): Not Active

**Q.** Which results are given for `CCCN1C[C@H](CSC)C[C@@H]2c3cccc4[nH]cc(c34)C[C@H]21` [PERGOLIDE]?
**A.** IC50 [1]: Not Active; IC50 ([2]; jurkat): Not Active; IC50 ([3]; cho-k1): Not Active; IC50 [4]: Not Active; IC50 (Adenosine receptor A2a): Not Active; IC50 ([5]; insect cells): Not Active

**Q.** For `C1CCC(C(CC2CCCCN2)C2CCCCC2)CC1` (centres undefined) [PERHEXILINE], which IC50 [1] is on record?
**A.** Not Active

**Q.** What about the IC50 ([2]; read-out: IC50) of the same compound?
**A.** 2600 nM

**Q.** What about the Ki ([2]; read-out: Ki) of the same compound?
**A.** 1090 nM

**Q.** And the IC50 ([3]; cho-k1)?
**A.** Not Active

**Q.** What about the IC50 [4] of the same compound?
**A.** Not Active

**Q.** What about the IC50 (Adenosine receptor A2a) of the same compound?
**A.** Not Active

**Q.** What about the IC50 ([5]; read-out: IC50) of the same compound?
**A.** 1490 nM

**Q.** Which IC50 [1] does the source give for `Cc1ccc(N(CC2=NCCN2)c2cccc(O)c2)cc1` [PHENTOLAMINE] here?
**A.** Not Active

**Q.** And the IC50 ([2]; jurkat)?
**A.** Not Active

**Q.** What about the IC50 ([3]; cho-k1) of the same compound?
**A.** Not Active

**Q.** What about the IC50 [4] of the same compound?
**A.** Not Active

**Q.** And the IC50 (Adenosine receptor A2a)?
**A.** Not Active

**Q.** What about the IC50 ([5]; insect cells) of the same compound?
**A.** Not Active

**Q.** Which results are given for `CN(C)CCCN1c2ccccc2Sc2ccccc21` [PROMAZINE]?
**A.** IC50 [1]: Not Active; IC50 ([2]; read-out: IC50): 271 nM; Ki ([2]; read-out: Ki): 114 nM; IC50 ([3]; read-out: IC50): 1090 nM; Ki ([3]; read-out: Ki): 387 nM; IC50 [4]: Not Active; IC50 (Adenosine receptor A2a): Not Active; IC50 ([5]; insect cells): Not Active
